The structures appear in SMILES notation.

As a reminder, the IC50 is the concentration that inhibits the measured activity by half.

The target in the test is T1, Toll-like receptor 7 (Homo sapiens, UniProt Q9NYK1).
T1 sequence (Q9NYK1 whole entry): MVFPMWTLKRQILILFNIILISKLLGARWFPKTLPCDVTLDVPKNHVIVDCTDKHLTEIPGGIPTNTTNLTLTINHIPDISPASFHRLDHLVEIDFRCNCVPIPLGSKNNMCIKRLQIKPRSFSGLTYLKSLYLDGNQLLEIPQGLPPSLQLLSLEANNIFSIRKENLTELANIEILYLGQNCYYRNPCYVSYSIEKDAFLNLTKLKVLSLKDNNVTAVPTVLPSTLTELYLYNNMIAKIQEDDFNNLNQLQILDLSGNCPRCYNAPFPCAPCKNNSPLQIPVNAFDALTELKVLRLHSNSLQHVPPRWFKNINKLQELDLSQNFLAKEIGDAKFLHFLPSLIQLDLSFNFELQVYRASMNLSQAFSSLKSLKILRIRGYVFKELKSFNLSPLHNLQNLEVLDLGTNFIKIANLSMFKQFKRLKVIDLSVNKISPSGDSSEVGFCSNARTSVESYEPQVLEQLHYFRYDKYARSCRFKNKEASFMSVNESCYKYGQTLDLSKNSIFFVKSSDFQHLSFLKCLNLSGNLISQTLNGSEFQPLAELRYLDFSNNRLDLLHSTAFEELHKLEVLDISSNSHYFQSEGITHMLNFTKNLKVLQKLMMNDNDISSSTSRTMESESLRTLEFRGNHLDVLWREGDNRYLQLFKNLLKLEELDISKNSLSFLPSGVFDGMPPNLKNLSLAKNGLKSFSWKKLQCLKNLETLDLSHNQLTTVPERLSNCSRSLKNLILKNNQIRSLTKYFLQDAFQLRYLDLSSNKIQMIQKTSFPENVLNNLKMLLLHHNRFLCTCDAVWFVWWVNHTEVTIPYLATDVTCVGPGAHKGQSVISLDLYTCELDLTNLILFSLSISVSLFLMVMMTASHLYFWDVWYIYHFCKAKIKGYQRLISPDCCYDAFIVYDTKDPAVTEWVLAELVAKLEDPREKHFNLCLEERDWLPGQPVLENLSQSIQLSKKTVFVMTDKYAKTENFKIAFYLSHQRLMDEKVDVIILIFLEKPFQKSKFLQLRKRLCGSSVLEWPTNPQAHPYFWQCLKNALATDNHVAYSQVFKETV
Kind of test: Inhibition of the Activation Assay: As human TLR7 expressing cell line, HEK293 cell line was bought from IMGENEX Corporation (TLR7/NF-ηB/SEAPorter™ HEK293 cell), which is human embryonic kidney cell line and stably expresses full-length human TLR7 gene and secreted alkaline phosphatase (SEAP) reporter gene under the transcriptional control of an NE-ηB response element. The TLR7/NF-ηB/SEAPorter™ HEK293 cell was cultivated with DMEM containing 10% fetal bovine serum (FBS) and 10 μg/mL blasticidin S at 37° C. in the presence of 5% CO2. For orientation: A reporter such as luciferase makes a cellular process visible.

In the case of `CCOc1nc(N)c2nc(-c3cncc(F)c3)n(Cc3cc(CN(C)C)no3)c2n1`, the IC50 came out at 1300 nM. Under `CCOc1nc(N)c2nc(-c3cncc(F)c3)n(Cc3ccccc3OC(F)F)c2n1` stands 2170 nM; under `CCOc1nc(N)c2nc(-c3cncc(F)c3)n(Cc3ccc(F)c(OCCN(C)C)c3)c2n1`, 420 nM; under `CCOc1nc(N)c2nc(-c3cncc(F)c3)n(Cc3ccc(C4CCN(C)C4)cc3)c2n1` (stereo not given), 20 nM. Turning to `CCOc1nc(N)c2nc(-c3cncc(F)c3)n(Cc3ccc(OCCN4CCN(C)CC4)cc3)c2n1`, the IC50 worked out at 67 nM. `COc1nc(C)c2nc(-c3cccnc3)n(Cc3ccc(O[C@@H]4CN5CCC4CC5)cc3F)c2n1`: the IC50 was 70 nM. For `CCOc1nc(C)c2nc(-c3cncc(F)c3)n(Cc3cnn(C)c3)c2n1`, the IC50 came to 2680 nM. For the molecule `CCOc1nc(N)c2nc(-c3cncc(F)c3)n(Cc3ccc(CN4CCN5CCC4C5)cc3)c2n1` (stereo not given), the IC50 was determined as 51 nM.

In the case of `CCOc1nc(N)c2nc(-c3cncc(F)c3)n(Cc3ccc(OCCCN(C)C)cc3)c2n1`, the IC50 is 89 nM.

For `CCOc1nc(C)c2nc(-c3cncc(F)c3)n(Cc3ccc(C4CN5CCC4CC5)cc3)c2n1` (stereo not given), the IC50 stood at 7 nM. The value for `COc1nc(C)c2nc(-c3cncc(F)c3)n(Cc3ccc(CC4CCN(C(=O)OC(C)(C)C)CC4)cc3F)c2n1` was 355 nM; that for `CCOc1nc(N)c2nc(-c3cncc(F)c3)n(Cc3cccc(OCCCN(C)C)c3)c2n1` was 60 nM; that for `CCOc1nc(N)c2nc(-c3cncc(F)c3)n(Cc3cc(OCCN(C)C)ccn3)c2n1` was 5800 nM. For `CCCCOc1nc(N)c2nc(-c3ccc(CN4CCOCC4)cc3)n(Cc3ccccc3)c2n1`, the IC50 came out at 8200 nM. Under `CCOc1nc(N)c2nc(-c3cncc(F)c3)n(Cc3ccc(F)c(OCCN4CCCC4)c3)c2n1` stands 620 nM; under `CCOc1nc(N)c2nc(-c3cncc(F)c3)n(Cc3ccc(OCCN(C)C)nc3)c2n1`, 810 nM.

In the case of `CCOc1nc(C)c2nc(-c3cncc(F)c3)n(Cc3ccc(CN4CCN5CC[C@H]4C5)cc3)c2n1`, the IC50 was 63 nM. The value for `COCCOc1nc(N)c2nc(-c3cncc(C)c3)n(Cc3ccccc3)c2n1` was 9100 nM; that for `COc1nc(C)c2nc(-c3cncc(F)c3)n(Cc3ccc(C4=CCN(C(=O)OC(C)(C)C)CC4)cc3F)c2n1` was 291 nM; that for `CCOc1nc(N)c2nc(-c3cncc(F)c3)n(Cc3ccc(OCCN(C)C)cc3)c2n1` was 99 nM. The value for `CCCCOc1nc(N)c2nc(-c3ccc(OCCCN4CCOCC4)cc3)n(Cc3ccccc3)c2n1` was 4100 nM; that for `CCCCOc1nc(C)c2nc(-c3cncc(F)c3)n(Cc3ccc(CN(C)C)cc3)c2n1` was 200 nM.

`CCOc1nc(N)c2nc(-c3cncc(F)c3)n(Cc3ccc4c(c3)CN(C(=O)CN(C)C)C4)c2n1`: the IC50 stood at 460 nM.

As for `CCOc1nc(C)c2nc(-c3cncc(F)c3)n(Cc3ccc(CN4C[C@@H]5C[C@H]4CN5CC)nc3)c2n1`, the IC50 stood at 230 nM. Under `CCOc1nc(N)c2nc(-c3cncc(F)c3)n(Cc3cccc(OCCN(C)C)c3)c2n1` stands 77 nM; under `COc1nc(C)c2nc(-c3cncc(F)c3)n(Cc3ccc([C@H]4CN5CCC4CC5)cc3)c2n1`, 3 nM. Regarding `CCOc1nc(N)c2nc(-c3cncc(F)c3)n(Cc3ccc(OCCN4CCN(C)CC4)nc3)c2n1`, the IC50 came out at 280 nM. For `CCOc1nc(C)c2nc(-c3cncc(F)c3)n(Cc3ccc(CN4CCN5CCC4C5)cc3)c2n1` (stereo not given), the IC50 turned out to be 28 nM. Turning to `CCOc1nc(N)c2nc(-c3cncc(F)c3)n(Cc3cccc(OCCN(C)C)n3)c2n1`, the IC50 came out at 1430 nM.

Turning to `CCCCOc1nc(N)c2nc(-c3cccc(CN4CCOCC4)c3)n(Cc3ccccc3)c2n1`, the IC50 came to 13900 nM.

As to `CCOc1nc(N)c2nc(-c3cncc(F)c3)n(Cc3ccc(OCCN4CCCC4)nc3)c2n1`, the IC50 is 620 nM. `CCOc1nc(N)c2nc(-c3cncc(F)c3)n(Cc3ccnc(OCCN(C)C)c3)c2n1`: the IC50 came out at 1800 nM. Under `CCCCCc1nc(N)c2nc(-c3cncc(F)c3)n(Cc3ccccc3)c2n1` stands 9500 nM; under `COc1nc(C)c2nc(-c3cnccn3)n(Cc3ccc(C4CN5CCC4CC5)cc3F)c2n1` (stereo not given), 43 nM.

On to `COc1nc(C)c2nc(-c3cncc(F)c3)n(Cc3ccc(C4CCN(C)C4)cc3)c2n1` (stereo not given), for which the IC50 worked out at 84 nM.

The values are drawn from ChEMBL document CHEMBL5727796, “Substituted purine derivative” (2020).
